Laboratory results reported in patent US11446270B2, “Leonurine crystal and use thereof in preparation of insulin sensitizer, hypoglycemic drug and lipid-lowering drug” (ZHUHAI HENGQIN NEW DISTRICT ZHONGZHU ZHENGTAI MEDICAL …, priority 2017, dated 2022).
Entries after “also recorded” stand apart in the source; their conditions may differ.

Experiments:
New Zealand rabbits = assay: Carotid atherosclerotic plaque intima-media thickness (IMT) by high-frequency ultrasound in rabbit atherosclerosis model; type: in vivo; conditions: for intimal-medial thickness (IMT) at the largest carotid plaque: high fat diet 8 weeks, vs model group
Experimental: Forty-two male New Zealand rabbits weighed 2.0 to 2.5 kg were fed with normal diet to adapt to the housing environment for one week before experiment, and then the rabbits were fed with high fat diet (1% cholesterol; SF00-221 SpecialtyFeed Australia) for 8 weeks to establish the rabbit model of atherosclerosis. […] When the rabbits were started to give high fat diet, various drugs or vehicle (NC and MD groups) were simultaneously administered. The drug was administered once a day continuously for 8 weeks and weighed once a week to adjust the dose of drugs. Rabbits were caged in an air-conditioned room (24±1° C. room temperature and 55±5% air humidity) with 12 h light per day and had free access to water and were fed ad libitum. High-frequency ultrasound detection of carotid plaque: the high-frequency microscopy imaging system (Vevo770) was used to detect carotid atherosclerotic plaque at the end of the 8th week of the experiment. The rabbits were anesthetized with 3% pentobarbital sodium in the dose of 30 mg/kg. Using the RMV707B probe (resolution 30 MHz) to observe the carotid bifurcation plaque and measure the blood flow velocity on the carotid artery long axis section by two-dimensional ultrasound. Then adjust direction of the probe so that the angle between the probe and the carotid artery is less than 60° to obtain the long-axis view. The intima-media thickness (IMT) is measured at the maximum end-diastolic plaque. The measurement to detected IMT is taking the vertical distance between the lumen-intimal echo to the medial-outer membrane echo, and detecting the atherosclerotic plaque on the right common carotid artery bifurcation proximal. The carotid ultrasound images and the maximum IMT at the plaque were analyzed, and the morphology of atherosclerotic plaques was evaluated. The data were analyzed by Vevo770 microscopy imaging system software. All measurements were repeated twice in the same area and averaged.

Sprague-Dawley rats = assay: Chronic administration for 3 weeks, fasting blood glucose of rats; type: in vivo, rat; conditions: vs solvent control, listed as leonurine crystal form A
Experimental: Forty male Sprague-Dawley rats weighed 180 to 220 g were randomly divided into 4 groups (10 rats each group): control group are treated with equal volume of DMSO, and the treatment groups were administered at 30 mg/kg per day, 60 mg/kg per day, and 120 mg/kg per day of leonurine crystal form A respectively, where leonurine crystal form A was dissolved in DMSO at concentrates of 30 mg/ml, 60 mg/ml and 120 mg/ml, and the volume of vehicle administered intragastrically in each rat was 1 ml per kg of body weight. The rats were treated with leonurine crystal form A or DMSO once a day continuously for 3 weeks, and the body weight and fasting blood-glucose were detected at third week. The rats were fasted (allowed water ad libitum) for 12 h before experiment. Fasting blood-glucose and body weight were tested after 1 h of administered drugs. The rats were not given drugs on the next days for one week, and the body weight and fasting blood-glucose were detected at forth week. The data were analyzed by SPSS statistical software (version 11.5), and results were expressed as the mean±standard error of the mean (mean±SEM). Multiple group comparisons were tested by one-way analysis of variance (ANOVA). P<0.05 was considered as statistically significant.

COc1cc(C(=O)OCCCCNC(=N)N)cc(OC)c1O [crystal form A, 4-guanidino-1-butyl 4-hydroxy-3,5-dimethoxybenzoate]
carotid plaque thickness / IMT growth induced by high fat (New Zealand rabbits; high fat diet 8 weeks, 4, 8, 16 mg/kg/day, dose-dependent effect): significantly inhibited IMT growth
intimal-medial thickness (IMT) at the largest carotid plaque (New Zealand rabbits; high dose group 16 mg/kg/d): decrease plaque thickness
intimal-medial thickness (IMT) at the largest carotid plaque (New Zealand rabbits; medium dose group 8 mg/kg/d): decrease plaque thickness
fasting blood glucose of rats (Sprague-Dawley rats; 60 mg/kg/d for 3 weeks, fourth week): significantly reduced; also recorded: decreased fasting blood glucose
fasting blood glucose of rats (Sprague-Dawley rats; 60 mg/kg/d, after 3 weeks of continuous administration): had not statistically difference; also recorded: not statistically significant
fasting blood glucose of rats (Sprague-Dawley rats; 120 mg/kg/d for 3 weeks, fourth week): significantly reduced; also recorded: decreased fasting blood glucose
fasting blood glucose of rats (Sprague-Dawley rats; 120 mg/kg/d, after 3 weeks of continuous administration): significant reduce; also recorded: significantly decreased
